Tested on: subject having an autoimmune disease
Format: in vivo, human
Details: IV cyclophosphamide regimen of TABLE 1, no fludarabine, before CAR T infusion
Source text: T cells are obtained from a subject having an autoimmune disease (for example, an autoimmune disease selected from (SLE), lupus nephritis, SLE with anti-dsDNA antibodies, pemphigus vulgaris (PV), mucosal PV, mucocutaneous PV, myasthenia gravis (MG), MuSK-associated MG, AChR MG, myositis, membranous nephropathy, anti-synthetase syndrome, dermatomyositis, immune mediated necrotizing myopathy, multiple sclerosis, neuromyelitis optica, chronic inflammatory demyelinating polyneuropathy, anti-NMDA Receptor encephalitis, Lambert-Eaton syndrome, pemphigus foliaceus, epidermolysis bullosa acquisita, bullous pemphigoid, Goodpasture's syndrome, rheumatoid arthritis, systemic sclerosis, anti-neutrophil cytoplasmic antibody (ANCA)-associated vasculitis, immune thrombocytopenic purpura, antiphospholipid syndrome, autoimmune hemolytic anemia, type 1 diabetes, Grave's disease, Hashimoto's disease, and Sjogren's syndrome). […]
A dose of CAR T cells (e.g., from 1×10^6 to 1×10^7 cells/kg bodyweight) is intravenously administered to the subject. The subject is monitored post-infusion for B-cell levels, white blood cell count, CAR T cell levels, and for autoimmune disease markers (e.g., autoantibody levels).

Question: How did the “effectiveness of the cyclophosphamide preconditioning regimen used prior to CD19-CAR T cell therapy in treating the autoimmune disease” value turn out when `O=P1(N(CCCl)CCCl)NCCCO1` (stereo not shown) [cyclophosphamide] was run?
Answer: effective in the treatment of the autoimmune disease
